ChEMBL document CHEMBL6120978, “Anticancer activity of salinomycin quaternary phosphonium salts” (Eur J Med Chem, 2025)
Activity calls are given as the source filed them. The calls are words filed in the database; no cut-off is given here.

Columns and labels:
Mitochondrial membrane [1] = assay: Induction of mitochondrial membrane potential loss in human A549 cells assessed as red fluorescence at IC50 incubated for 48 hrs MitoTrackerRed CMXRos staining based flow cytometry analysis (reference value: 91.1 %); format: cell membranes
Mitochondrial membrane [2] = assay: Induction of mitochondrial membrane potential loss in human MDA-MB-231 cells assessed as green fluorescence at IC50 incubated for 48 hrs MitoTracker Green FM staining based flow cytometry analysis (reference value: 8.86 %); format: cell membranes
Mitochondrial membrane [3] = assay: Induction of mitochondrial membrane potential loss in human MDA-MB-231 cells assessed as red fluorescence at IC50 incubated for 48 hrs MitoTrackerRed CMXRos staining based flow cytometry analysis (reference value: 91.1 %); format: cell membranes
Mitochondrial membrane [4] = assay: Induction of mitochondrial membrane potential loss in human A549 cells assessed as green fluorescence at IC50 incubated for 48 hrs MitoTracker Green FM staining based flow cytometry analysis (reference value: 8.93 %); format: cell membranes
Lipid bilayer [5] = assay: Induction of ionic transport in azolectin bilayer membrane assessed as irregular disturbance in membrane permeability in presence of HEPES buffer by electrophysiology technique
Staphylococcus aureus [6] = assay: Antimicrobial activity against Staphylococcus aureus ATCC 6538 incubated for 18 hrs by twofold microdilution method; format: functional
[7] = Selectivity index, ratio of IC50 for cytotoxicity against chinese hamster V79 cells to IC50 for cytotoxicity against human SW480 cells; format: toxicity, cell-based; details: V79 cells versus SW480 cells, read-out: Ratio IC50
[8] = Cytotoxicity against human HaCaT cells incubated for 72 hrs by MTT assay; format: toxicity, cell-based
[9] = Selectivity index, ratio of IC50 for cytotoxicity against chinese hamster V79 cells to IC50 for cytotoxicity against human SW620 cells; format: toxicity, cell-based; details: V79 cells versus SW620 cells, read-out: Ratio IC50
[10] = Selectivity index, ratio of IC50 for cytotoxicity against human HaCaT cells to IC50 for cytotoxicity against human PC-3 cells; format: toxicity, cell-based; details: HaCaT cells versus PC-3 cells, read-out: Ratio IC50
MDA-MB-231 = assay: Cytotoxicity against human MDA-MB-231 cells incubated for 72 hrs by MTT assay; format: functional, cell-based; details: MDA-MB-231, 72 h
Lipid bilayer [11] = assay: Induction of ionic transport in azolectin bilayer membrane assessed as membrane rupture in presence of HEPES buffer by electrophysiology technique
A549 [12] = assay: Cytotoxicity against human A549 cells incubated for 72 hrs by MTT assay; format: functional, cell-based; details: A549, 72 h
Staphylococcus aureus [13] = assay: Antimicrobial activity against Staphylococcus aureus NCTC 4163 incubated for 18 hrs by twofold microdilution method; format: functional
[14] = Selectivity index, ratio of IC50 for cytotoxicity against chinese hamster V79 cells to IC50 for cytotoxicity against human PC-3 cells; format: toxicity, cell-based; details: V79 cells versus PC-3 cells, read-out: Ratio IC50
[15] = Selectivity index, ratio of IC50 for cytotoxicity against human HaCaT cells to IC50 for cytotoxicity against human SW480 cells; format: toxicity, cell-based; details: HaCaT cells versus SW480 cells, read-out: Ratio IC50
[16] = Cytotoxicity against chinese hamster V79 cells incubated for 72 hrs by MTT assay; format: toxicity, cell-based, Cricetulus griseus
SW480 = assay: Cytotoxicity against human SW480 cells incubated for 72 hrs by MTT assay; format: functional, cell-based; details: SW480, 72 h
A549 [17] = assay: Induction of mitochondrial respiration in human A549 cells assessed as decrease in oxygen consumption rate at 3 uM by Oxygraph-2K system; format: functional, cell-based
A549 [18] = assay: Induction of mitochondrial respiration in human A549 cells assessed as fold increase in oxygen consumption rate at 1 uM by Oxygraph-2K system; format: functional
Staphylococcus aureus [19] = assay: Antimicrobial activity against Staphylococcus aureus ATCC 29213 incubated for 18 hrs by twofold microdilution method; format: functional
SW-620 = assay: Cytotoxicity against human SW620 cells incubated for 72 hrs by MTT assay; format: functional, cell-based; details: SW-620, 72 h
Lipid bilayer [20] = assay: Induction of ionic transport in azolectin bilayer membrane assessed as specific channel-like structure formation in presence of HEPES buffer by electrophysiology technique
[21] = system: Staphylococcus epidermidis; assay: Antimicrobial activity against Staphylococcus epidermidis ATCC 35984 incubated for 18 hrs by twofold microdilution method; format: functional
PC-3 = assay: Cytotoxicity against human PC-3 cells incubated for 72 hrs by MTT assay; format: functional, cell-based; details: PC-3, 72 h
[22] = Selectivity index, ratio of IC50 for cytotoxicity against chinese hamster V79 cells to IC50 for cytotoxicity against human A549 cells; format: toxicity, cell-based; details: V79 cells versus A549 cells, read-out: Ratio IC50
Lipid bilayer [23] = assay: Induction of current generation in azolectin bilayer membrane in presence of HEPES buffer by electrophysiology technique
Pseudomonas aeruginosa = assay: Antimicrobial activity against Pseudomonas aeruginosa ATCC 15442 incubated for 18 hrs by twofold microdilution method; format: functional
[24] = Selectivity index, ratio of IC50 for cytotoxicity against human HaCaT cells to IC50 for cytotoxicity against human A549 cells; format: toxicity, cell-based; details: HaCaT cells versus A549 cells, read-out: Ratio IC50
[25] = Selectivity index, ratio of IC50 for cytotoxicity against chinese hamster V79 cells to IC50 for cytotoxicity against human MDA-MB-231 cells; format: toxicity, cell-based; details: V79 cells versus MDA-MB-231 cells, read-out: Ratio IC50
Staphylococcus aureus [26] = assay: Antimicrobial activity against Staphylococcus aureus ATCC 25923 incubated for 18 hrs by twofold microdilution method; format: functional
[27] = system: Staphylococcus epidermidis; assay: Antimicrobial activity against Staphylococcus epidermidis ATCC 12228 incubated for 18 hrs by twofold microdilution method; format: functional
[28] = Selectivity index, ratio of IC50 for cytotoxicity against human HaCaT cells to IC50 for cytotoxicity against human SW620 cells; format: toxicity, cell-based; details: HaCaT cells versus SW620 cells, read-out: Ratio IC50
Escherichia coli = assay: Antimicrobial activity against Escherichia coli ATCC 25922 incubated for 18 hrs by twofold microdilution method; format: functional
[29] = Selectivity index, ratio of IC50 for cytotoxicity against human HaCaT cells to IC50 for cytotoxicity against human MDA-MB-231 cells; format: toxicity, cell-based; details: HaCaT cells versus MDA-MB-231 cells, read-out: Ratio IC50

Question: For `N#CC(C#N)=NNc1cccc(Cl)c1`, which Activity (Mitochondrial membrane [1]) is on record?
Answer: 20.2%

Question: What about the Activity (Mitochondrial membrane [2]) of the same molecule?
Answer: 87.8%

Question: What about the Activity (Mitochondrial membrane [3]) of the same molecule?
Answer: 12.3%

Question: And the Activity (Mitochondrial membrane [4])?
Answer: 79.6%

Question: Which results are given for `CC[C@@H](C(=O)[C@@H](C)[C@@H](O)[C@H](C)[C@@H]1O[C@@H]([C@@H](CC)C(=O)OCCCC[P+](c2ccc(C)cc2)(c2ccc(C)cc2)c2ccc(C)cc2)CC[C@@H]1C)[C@H]1O[C@]2(C=C[C@@H](O)[C@]3(CC[C@@](C)([C@H]4CC[C@](O)(CC)[C@H](C)O4)O3)O2)[C@H](C)C[C@@H]1C.[Br-]`?
Answer: Activity (Lipid bilayer [5]): inactive; MIC (Staphylococcus aureus [6]): 2 µg/mL; selectivity ratio [7]: 8.6; IC50 at 72 h [8]: 1020 nM; selectivity ratio [9]: 7.5; selectivity ratio [10]: 0.5; IC50 (MDA-MB-231): 830 nM; Activity (Lipid bilayer [11]): inactive; IC50 (A549 [12]): 810 nM; MIC (Staphylococcus aureus [13]): 2 µg/mL; selectivity ratio [14]: 1.7; selectivity ratio [15]: 2.3; IC50 at 72 h [16]: 3770 nM; IC50 (SW480): 440 nM; Activity (A549 [17]): inactive; fold change (FC) (A549 [18]): 2.5; MIC (Staphylococcus aureus [19]): 4 µg/mL; IC50 (SW-620): 500 nM; Activity (Lipid bilayer [20]): inactive; MIC [21]: 4 µg/mL; IC50 (PC-3): 2210 nM; selectivity ratio [22]: 4.7; Activity (Lipid bilayer [23]): Dose-dependent-effect; MIC (Pseudomonas aeruginosa): > 256 µg/mL; selectivity ratio [24]: 1.3; selectivity ratio [25]: 4.5; MIC (Staphylococcus aureus [26]): 4 µg/mL; MIC [27]: 4 µg/mL; selectivity ratio [28]: 2; MIC (Escherichia coli): > 256 µg/mL; selectivity ratio [29]: 1.2
